The values below come from US20100144793A1, “NOVEL COMPOUNDS FOR THE TREATMENT OF DISEASES ASSOCIATED WITH AMYLOID OR AMYLOID-LIKE PROTEINS” (AC IMMUNE SA, priority 2006, published 2010).

One series concerns the target T1, Aβ1-42 (Homo sapiens, UniProt P05067).
T1 construct: Aβ1-42 lyophilized powder (Bachem) was reconstituted in hexafluoroisopropanol (HFIP) to 1 mM; purchased Bachem
Nature of the series: Thioflavin T spectrofluorescence assay: inhibition of Aβ1-42 aggregation. It counts as biochemical. The method, then: The objective of this example was to evaluate the capacity of the compounds of the invention to inhibit the aggregation of (Aβ)1-42 peptide and to disaggregate pre-aggregated Aβ1-42 using a thioflavin T spectrofluorescence assay.
Aβ1-42 lyophilized powder (Bachem) was reconstituted in hexafluoroisopropanol (HFIP) to 1 mM. The peptide solution was sonicated for 15 min at room temperature, agitated overnight, and aliquots were placed into non-siliconized microcentrifuge tubes. The HFIP was then evaporated under a stream of argon. The resulting peptide film was dried under vacuum for 10 min, tightly sealed and stored at −80° C. until used.
Aβ1-42 peptide film was dissolved in DMSO to reach 400 μM. Assay solution in PBS was prepared in non-siliconized incubation tubes to reach the following concentrations: 330 μM small molecule, 33 μM Aβ1-42, 10 μM thioflavin T (ThT), and 12.8% DMSO. Therefore, the final molar ratio of small molecule to Aβ1-42 was 10:1. A positive control without a small molecule was prepared to measure maximum RFU. A negative control without Aβ1-42 was prepared for each small molecule. 3-aminopyrazole trimer (Trimer) was tested in all assays to ascertain reproducibility between independent experiments. The solutions were then incubated for 24 h at 37° C., and the spectrofluorescence (relative fluorescence units; RFU) read in six replicates in black 384-well assay plates (Perkin-Elmer) on a Perkin-Elmer FluoroCount spectrofluorometer. Inhibition of aggregation is expressed as mean % inhibition±1 standard deviation (SD) according to the following equation: […]

Series [1] has as its target T2, Oregon Green labeled Aβ(1-42) (Homo sapiens, UniProt P05067).
T2 construct: DMSO-stock solutions of Oregon Green labeled Aβ(1-42) 1:1 with deionized water
Nature of the series: FCS-assay with 5 nM Oregon Green labeled Aβ-peptide (disaggregation of preformed aggregates). It counts as biochemical. The procedure: In order to analyse the disaggregating properties of the compounds, preformed aggregates were used, which were induced straight before the FCS-measurement by diluting low concentrated (500 nM) DMSO-stock solutions of Oregon Green labeled Aβ(1-42) 1:1 with deionized water. The final concentration of Oregon Green labeled Aβ-peptide was 5 nM in 1×PBS and 3% DMSO.
To improve the reproducibility of the measurements of the concentration dependencies all samples were prepared fourfold.

The mark [2] stands for this setting: 10:1 small molecule to Aβ1-42 molar ratio.
Where [3] appears, read: read-out: Percentage of the “number of peaks” value compared to the control reaction without added ligand.
Where [4] appears, read: read-out: Percentage of the “peaks × height“ value compared to the control reaction without added ligand.
The mark [5] stands for this setting: Table 4, 10:1 small molecule to Aβ1-42 molar ratio, 24 h at 37° C., mean ± SD of 2 independent experiments, read-out: % inhibition.

Structures are written as SMILES. Counter-ions that a name gives are not always drawn. Like-named read-outs stand apart in the source and are kept apart here.

T1 sequence (P05067 672-713 limits assumed): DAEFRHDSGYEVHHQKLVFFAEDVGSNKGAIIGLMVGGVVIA
T2 sequence (P05067 672-713 limits assumed): as above

Turning to `c1ccc(Cc2cc(NCCNc3cc(Cc4ccccc4)[nH]n3)n[nH]2)cc1` (as salt: hydrochloride) [Compound 1l, N^1,N^2-bis(5-Benzyl-1H-pyrazol-3-yl)ethane-1,2-diamine dihydrochloride], the melting point was in the range of 177 to 178 °C.

For `Clc1ccc(-c2cc(NCCNc3cc(-c4cccs4)[nH]n3)n[nH]2)cc1` (as salt: hydrochloride) [Compound 1ah, N-(5-(4-Chlorophenyl)-1H-pyrazol-3-yl)-N′-(5-(thiophen-2-yl)-1H-pyrazol-3-yl)ethane-1,2-diamine bishydrochloride], the melting point is 139 °C.

Molecule `c1ccc(-c2cc(NCCNc3cc(-c4ccccn4)[nH]n3)n[nH]2)nc1` (as salt: hydrochloride) [Compound 1al, N^1,N^2-bis(5-(Pyridin-2-yl)-1H-pyrazol-3-yl)ethane-1,2-diamine tetra-hydrochloride] came in with a melting point greater than 250 °C.

Molecule `c1ccc(-c2cc(NCCNc3cc(-c4ccccc4)[nH]n3)n[nH]2)cc1` (as salt: hydrochloride) [Compound 1e, N^1,N^2-bis(5-Phenyl)-1H-pyrazol-3-yl)ethane-1,2-diamine bishydrochloride] had a melting point of 204 °C.

`Cc1ccc(-c2cc(NCC(C)(C)CNc3cc(-c4ccc(C)cc4)[nH]n3)n[nH]2)cc1` (as salt: hydrochloride) [Compound 1an, dihydrochloride] showed a melting point of 151 °C.

Regarding `FC(F)(F)c1cccc2[nH]nc(NCCNc3n[nH]c4cccc(C(F)(F)F)c34)c12` (as salt: hydrochloride) [Compound 1ai, N,N′-bis(4-(Trifluoromethyl)-1H-indazol-3-yl)ethane-1,2-diamine bishydrochloride], the melting point is 222 °C.

The molecule `c1coc(-c2cc(NCCNc3cc(-c4ccco4)[nH]n3)n[nH]2)c1` (as salt: hydrochloride) [Compound 1m, N^1,N^2-bis(5-(2-Furyl)-1H-pyrazol-3-yl)ethane-1,2-diamine bishydrochloride] returned a melting point of 214 to 216 °C.

Turning to `Fc1ccc(-c2cc(NCCNc3cc(-c4ccc(F)cc4)[nH]n3)n[nH]2)cc1` (as salt: hydrochloride) [Compound 1ak, N^1,N^2-bis(5-(4-Fluorophenyl)-1H-pyrazol-3-yl)ethane-1,2-diamine bishydrochloride], the melting point fell in the range of 239 to 240 °C.

With `c1csc(-c2cc(NCCNc3cc(-c4cccs4)[nH]n3)n[nH]2)c1` (as salt: hydrochloride) [Compound 1h, N^1,N^2-bis(5-(2-Thienyl)-1H-pyrazol-3-yl)ethane-1,2-diamine bishydrochloride], the melting point is 147 °C.

Regarding `Fc1ccc(-c2cc(NCCNc3cc(-c4ccc(F)cc4)[nH]n3)n[nH]2)cc1` [Compound 1ak, N^1,N^2-bis(5-(4-Fluorophenyl)-1H-pyrazol-3-yl)ethane-1,2-diamine bishydrochloride], the “inhibition of Aβ1-42 aggregation, in words” value (from here on “inhibition … in words”) on Aβ1-42 (setting [2]) is given as “strong inhibition of aggregation”. Moreover, 330 µM produced 74 ± 5.9% inhibition at Aβ1-42 (24 h). In addition, in series [1] (setting [3]), the remaining activity at 0.1 µM amounted to 57.4% and the remaining activity at 0.2 µM worked out at 51%. In addition, in series [1] (setting [4]), the remaining activity at 0.1 µM is 43.3% and the remaining activity at 0.2 µM amounted to 44.8%.

Consider `CN(C)c1ccc(-c2cc(NCCNc3cc(-c4ccc(N(C)C)cc4)[nH]n3)n[nH]2)cc1.Cl.Cl` [Compound 1aj, N^1,N^2-bis(5-(4-(Dimethylamino)phenyl)-1H-pyrazol-3-yl)ethane-1,2-diamine bishydrochloride], for which the “inhibition … in words” value on Aβ1-42 (setting [2]) is “strong inhibition of aggregation”. Besides, the inhibition at 330 µM at Aβ1-42 (setting [5]) is 79.1 ± 4.8%. Further, the remaining activity at 0.2 µM in series [1] (200 nM compound, 5 nM labeled Aβ-peptide, read-out: Percentage of the “number of peaks” value compared to the control reaction without added ligand) was determined as 57.4%; in series [1] (200 nM compound, 5 nM labeled Aβ-peptide, read-out: Percentage of the “peaks × height“ value compared to the control reaction without added ligand), 61.9%.

Take `Cc1ccc(-c2cc(NCc3cccc(CNc4cc(-c5ccc(C)cc5)[nH]n4)c3)n[nH]2)cc1` (as salt: hydrochloride) [Compound 1ao, N,N′-(1,3-Phenylenebis(methylene))bis(5-p-tolyl-1H-pyrazol-3-amine) dihydrochloride]: the melting point turned out to be 183 °C.

For the molecule `Clc1ccc(-c2cc(NCCNc3cc(-c4ccc(Cl)cc4)[nH]n3)n[nH]2)cc1` (as salt: hydrochloride) [Compound 1f, N^1,N^2-bis(5-(4-Chlorophenyl)-1H-pyrazol-3-yl)ethane-1,2-diamine bishydrochloride], the melting point came out at 195 °C.

For `Cc1ccc(-c2cc(NCc3ccc(CNc4cc(-c5ccc(C)cc5)[nH]n4)cc3)n[nH]2)cc1` (as salt: hydrochloride) [Compound 1ap, N,N′-(1,4-Phenylenebis(methylene))bis(5-p-tolyl-1H-pyrazol-3-amine) dihydrochloride], the melting point was 184 °C.

On to `Cc1ccc(-c2cc(NCCNc3cc(-c4ccc(Cl)cc4)[nH]n3)n[nH]2)cc1` (as salt: hydrochloride) [Compound 1ae, N-(5-(4-Chlorophenyl)-1H-pyrazol-3-yl)-N′-(5-p-tolyl-1H-pyrazol-3-yl)ethane-1,2-diamine bishydrochloride], for which the melting point was 182 °C.

`FC(F)(F)c1cccc2[nH]nc(NCCNc3n[nH]c4cccc(C(F)(F)F)c34)c12` [Compound 1ai, N,N′-bis(4-(Trifluoromethyl)-1H-indazol-3-yl)ethane-1,2-diamine bishydrochloride]: the “inhibition … in words” value at Aβ1-42 (setting [2]) is listed as “strong inhibition of aggregation”. Besides, on Aβ1-42 (24 h), the inhibition at 330 µM was found to be 50.4 ± 8.4%.

As to `c1c(NCCNc2cc(C3CC3)[nH]n2)n[nH]c1C1CC1` (as salt: hydrochloride) [Compound 1i, N^1,N^2-bis(5-Cyclopropyl-1H-pyrazol-3-yl)ethane-1,2-diamine bishydrochloride], the melting point is 205 to 206 °C.

As to `Clc1ccc(-c2c[nH]nc2NCCNc2n[nH]cc2-c2ccc(Cl)cc2)cc1` [Compound 1s, N^1,N^2-bis(4-(4-Chlorophenyl)-1H-pyrazol-3-yl)ethane-1,2-diamine bishydrochloride], the inhibition at 330 µM against Aβ1-42 (24 h) stood at 66.6 ± 4.1%.

For `Cc1ccc(-c2cc(NCc3cccc(CNc4cc(-c5ccc(C)cc5)[nH]n4)c3)n[nH]2)cc1` [Compound 1ao, N,N′-(1,3-Phenylenebis(methylene))bis(5-p-tolyl-1H-pyrazol-3-amine) dihydrochloride], at 330 µM the inhibition against Aβ1-42 (24 h) was 72.9 ± 0.7%.

The molecule `c1ccc(-c2ccc(-c3cc(NCCNc4cc(-c5ccc(-c6ccccc6)cc5)[nH]n4)n[nH]3)cc2)cc1` (as salt: hydrochloride) [Compound 1am, N^1-(5-(Biphenyl-4-yl)-1H-pyrazol-3-yl)-N^2-(3-(biphenyl-4-yl)-1H-pyrazol-5-yl)ethane-1,2-diamine bishydrochloride] had a melting point of 220 to 222 °C.

In turn, `Cc1ccc(-c2cc(NCc3cccc(CNc4cc(-c5ccc(C)cc5)[nH]n4)n3)n[nH]2)cc1` [Compound 1aq, N,N′-(Pyridine-2,6-diylbis(methylene))bis(5-p-tolyl-1H-pyrazol-3-amine) trishydrochloride] came in with an inhibition at 330 µM on Aβ1-42 (24 h) of 82.9 ± 2.7%.

`CC(C)(C)c1cc(NCCNc2cc(C(C)(C)C)[nH]n2)n[nH]1` [Compound 1j, N^1,N^2-bis(5-tert-Butyl-1H-pyrazol-3-yl)ethane-1,2-diamine bishydrochloride] had an inhibition at 330 µM against Aβ1-42 (24 h) of 11.5 ± 2.9%.

Consider `Clc1ccc(-c2c[nH]nc2NCCNc2n[nH]cc2-c2ccc(Cl)cc2)cc1` (as salt: hydrochloride) [Compound 1s, N^1,N^2-bis(4-(4-Chlorophenyl)-1H-pyrazol-3-yl)ethane-1,2-diamine bishydrochloride], for which the melting point came to 228 °C.

As for `c1ccc(-c2cc(NCCNc3cc(-c4ccccc4)[nH]n3)n[nH]2)cc1` [Compound 1e, N^1,N^2-bis(5-Phenyl)-1H-pyrazol-3-yl)ethane-1,2-diamine bishydrochloride], the “inhibition … in words” value at Aβ1-42 (setting [2]) is on record as “strong inhibition of aggregation”. In addition, the inhibition at 330 µM at Aβ1-42 (setting [5]) is 82.5 ± 5.8%.

Consider `c1ccc(-c2cc(NCCNc3cc(-c4ccccn4)[nH]n3)n[nH]2)nc1` [Compound 1al, N^1,N^2-bis(5-(Pyridin-2-yl)-1H-pyrazol-3-yl)ethane-1,2-diamine tetra-hydrochloride], for which the “inhibition … in words” value on Aβ1-42 (setting [2]) was “strong inhibition of aggregation”. On Aβ1-42 (24 h), this molecule returned an inhibition at 330 µM of 90.1 ± 4.7%. Moreover, the remaining activity at 0.2 µM worked out at 57.9% in series [1] (setting [3]) and 48% in series [1] (setting [4]).

Usually melting point stands for the temperature, or range, at which the solid turns liquid. Usually inhibition stands for how much of the control response was suppressed.
